Structures can show the parent of a compound that is named as a salt.
What was measured:
[1] = test system: Trichomonas vaginalis CDC337; assay: Antiprotozoan action; format: cell-based; details: 48 h
Procedure: Trichomonas vaginalis CDC337 was cultured in a Diamond's trypticase-yeast-maltose medium (pH 6.8) containing 8% fetal bovine serum (FBS). The protozoan bodies which had been cultured 37° C. for 2 days were centrifuged (1,500 rpm, 10 minutes) and subjected to medium replacement with a fresh medium before adjustment to 2×10^4 bodies/mL, followed by dispensing them in an amount of 100 μL/well in a micro plate (96-well, flat bottom). The test compound was dissolved using 0.1 mol/L hydrochloric acid, which was then diluted to a predetermined concentration with the medium, followed by dispensing 100 μL/well thereof into a micro plate. The minimal test compound concentration at which the movement of the bodies was not observed after culture 37° C. under anaerobic conditions for 2 days was defined as MIC.

[2] = Hygroscopicity test (3): storage at 60° C. and relative humidity of 100% for one week; format: physicochemical; details: relative humidity of 100%
Procedure: The compound of Example 10 and the comparative compound were stored under conditions of 60° C. and a relative humidity of 100% for one week. As a result, the comparative compound deliquesced.

[3] = Repeated-dose toxicity test in mice (2), hematological test; format: in vivo; details: value when control group is set to 100, male ICR mice
Procedure: (§1) Six-week old male ICR mice (body weight range: 27.4 to 33.7 g, the number of animals allocated to each group: 5) were used to examine the repeated-dose toxicity. A solution of each test compound was prepared by dissolution in 0.1 mol/L hydrochloric acid. Each compound was subcutaneously administered at a dose of 6.25 or 3.13 mg/kg once a day for 14 days. A sterilized physiological saline was administered to a control group. At the end of the administration period, each mouse was anesthetized with ether. An injection syringe containing a heparin solution (Novo-Heparin Injection 1000, Aventis Pharma K.K.) as an anticoagulant was used for blood collection from abdominal portion of vena cava. A hematological test was carried out for the following items.
(§2) (Hematological Test Items and Determination Methods)
(§3) Red blood cell count (RBC): Two-angle laser flow cytometry
(§4) Reticulocyte count: Flow cytometry after RNA staining

[4] = test system: Candida albicans TIMM1623; assay: Mouse Candida infection model test (oral administration); format: in vivo; details: 1 mg/kg orally for 7 days from 2 hours after infection, cyclophosphamide-compromised mice, observed 21 days after infection
Procedure: Candida albicans TIMM1623 on a SDA plate, which had been cultured overnight at 35° C. was suspended in a sterilized physiological saline, which was then diluted to prepare a suspension of inoculum organism. To make mice in a transiently compromised state, cyclophosphamide was intraperitoneally administered at 200 mg/kg 4 days before infection and at 100 mg/kg the next day after infection. Into the tail vein of mice was inoculated 0.2 mL of the prepared solution of inoculum Candida albicans TIMM1623 to induce infection (about 3×10^4 CFU/mouse). The test compound was suspended in 0.5% methylcellulose and orally administered at 1 mg/kg of mouse body weight. The treatment was started from 2 hours after infection and carried out for 7 days.

[5] = test system: Candida albicans TIMM1623; assay: Antifungal action: susceptibility testing of fungi by microbroth dilution method; format: cell-based; details: Candida albicans TIMM1623, RPMI/MOPS pH 7.0, 35° C., 48 hours, 50% growth inhibition
Procedure: Susceptibility testing of fungi was carried out using a microbroth dilution method. The medium used in the susceptibility test was RPMI1640 (RPMI/MOPS) adjusted to pH 7.0 employing 0.165 mol/L morpholinepropanesulfonic acid (MOPS) and 1.0 mol/L sodium hydroxide. A test compound was dissolved in sterile water, which was then subjected to two-fold serial dilution using 100 μL of RPMI/MOPS on a 96-well round bottom plate. Candida albicans TIMM1623 cultured overnight at 35° C. on Sabouraud agar medium was suspended in a sterilized physiological saline. The number of cells was counted under a biological microscope; a suspension of inoculum organism 2×10^3 cells/mL) was prepared using RPMI/MOPS, and 100 μL thereof was then dispensed into each well; and a microplate containing a predetermined concentration of the test compound, the medium, and fungal cells was finally prepared. The plate was cultured at 35° C. for 48 hours. After the end of cultivation, absorbance was determined at 630 nm using an automatic spectrophotometer. The lowest test compound concentration at which 50% growth inhibition was observed as compared to growth control where no test compound was added was defined as IC50.

[6] = Hygroscopicity test (1): storage at relative humidity of 75% for one week; format: physicochemical
Procedure: The compound of Example 4 and the comparative compound were stored under conditions of room temperature and a relative humidity of 75% or 60° C. and a relative humidity of 75% for one week.

[7] = Repeated-dose toxicity test in mice (1), hematological test; format: in vivo; details: value when control group is set to 100; 6.25 mg/kg subcutaneously once a day for 7 days, male ICR mice
Procedure: as §1, with “weight range: 30.6 to 34.8” for “weight range: 27.4 to 33.7”, “30.6 to 34.8 g, the” for “27.4 to 33.7 g, the”, “dissolution in distilled water. Each compound” for “dissolution in 0.1 mol/L hydrochloric acid. Each compound”, “of 6.25 mg/kg once” for “of 6.25 or 3.13 mg/kg once”, “day for 7 days. A” for “day for 14 days. A”, “portion of the vena cava.” for “portion of vena cava.”
as §2, §3, §4

[8] = Vero cell proliferation inhibition test (XTT assay); format: cell-based; details: African green monkey, Vero cells, concentration inhibiting cell proliferation by 50%
Procedure: The cytotoxicity of each compound was evaluated using Vero cells. Each test compound was dissolved in dimethylsulfoxide (DMSO), which was then subjected to serial dilution with 10% FBS-containing E'MEM and added to a 96-well plate. The cells were suspended in 10% FBS-containing E'MEM, inoculated in an amount of 3,000 cells/well (96-well plate), and cultured in a CO2 incubator at 37° C. for 3 days. The degree of growth of Vero cells was evaluated using a 2,3-bis-(2-methoxy-4-nitro-5-sulfophenyl)-5-[(phenylamino)carbonyl]-2H-tetrazolium=inner salt=monosodium salt (XTT) assay. Thus, an XTT solution containing 1 mg/mL XTT and 25 μmol/L phenazine=methosulfate (PMS) was added to each well, which was then incubated in a CO2 incubator for 2 hours, followed by determining the absorbance of the well at 450 nm (reference: 655 nm) using a micro plate reader. The absorbance ratio between the control (no added compound) and each of the wells was calculated, and the concentration (CC50; μg/mL) of compound inhibiting cell proliferation by 50% was computed.

[9] = 3.13 mg/kg subcutaneously once a day for 14 days

N=C(N)c1ccc(OCCCC2CCN(CCCOc3ccc(C(=N)N)cc3)CC2)cc1 [Example 10, 4-{3-[4-(3-{4-[amino(imino)methyl]phenoxy}propyl)-1-piperidinyl]propoxy}benzamidine trihydrochloride pentahydrate]
MIC [1]: 16 µg/mL | deliquescence after storage [2]: did not deliquesce

N=C(N)c1ccc(OCCCC2CCN(CCCOc3ccc(C(=N)N)cc3)CC2)cc1 [Example 3, 4-{3-[4-(3-{4-[amino(imino)methyl]phenoxy}propyl)-1-piperidinyl]propoxy}benzamidine]
Red blood cell count (RBC) [3, 9]: 96.4 | Reticulocyte count (Reticulocyte) [3, 9]: 93.5 | Red blood cell count (RBC) ([3]; 6.25 mg/kg subcutaneously once a day for 14 days): 98.7

NC(=NO)c1ccc(OCCCC2CCN(CCCOc3ccc(C(N)=NO)cc3)CC2)cc1 [Example 47, 4-{3-[4-(3-{4-[amino(hydroxyimino)methyl]phenoxy}propyl)-1-piperidinyl]propoxy}benzamide=oxime hydrochloride]
mice survived [4]: 80%

N=C(N)c1ccc(OCCCC2CCN(CCCOc3ccc(C(=N)N)cc3)CC2)cc1 [Example 4, 4-{3-[4-(3-{4-[amino(imino)methyl]phenoxy}propyl)-1-piperidinyl]propoxy}benzamidine hydrochloride]
IC50 [5]: ≤ 0.0039 µg/mL | appearance after storage ([6]; 60° C.): powder without any change in the appearance | appearance after storage ([6]; room temperature): powder without any change in the appearance | Red blood cell count (RBC) [7]: 94 | CC50 at 3 days [8]: 25 µg/mL

From patent publication US7700623B2, “Arylamidine derivative, salt thereof, and antifungal containing these” (Toyama Chemical Co., Ltd., priority 2004, dated 2010)
